Laboratory results from patent US7763615B2, “Ecteinascidin analogs for use as antitumour agents” (priority 2001, dated 2010).
Converted amounts (≈) assume the structure as drawn.

Experiments:
PANC-1 = assay: cells; assay type: cell-based; details: Homo sapiens, PANC-1, 48 h
In short: (§1)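 Readout: SRB OD490, triplicate wells. Setup: 5×10^3 cells/well, RPMI 1640 + 10% FBS, 37° C, 5% CO2; 18 h pre-attachment; 48 h sample exposure, 10 to 10^−8 μg/ml. Outputs GI, TGI (cytostatic), LC (cytotoxic).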

LNCAP = assay: cells; assay type: cell-based; details: Homo sapiens, LNCaP, 48 h
In short: as §1

MEL-28 = assay: cells; assay type: cell-based; details: Homo sapiens, SK-MEL-28, 48 h
In short: as §1

DU145 = assay: cells; assay type: cell-based; details: Homo sapiens, DU-145, 48 h
In short: as §1

SK-BR3 = assay: cells; assay type: cell-based; details: Homo sapiens, SK-BR-3, 48 h
In short: as §1

IGROV = assay: cells; assay type: cell-based; details: Homo sapiens, 48 h
In short: as §1

K562 = assay: cells; assay type: cell-based; details: Homo sapiens, K562, 48 h
In short: as §1

IGROV-ET = assay: cells; assay type: cell-based; details: Homo sapiens, 48 h
In short: as §1

A549 = assay: cells; assay type: cell-based; details: Homo sapiens, A549, 48 h
In short: as §1

LOVO = assay: cells; assay type: cell-based; details: Homo sapiens, LoVo, 48 h
In short: as §1

LOVO-DOX = assay: cells; assay type: cell-based; details: Homo sapiens, 48 h
In short: as §1

HT29 = assay: cells; assay type: cell-based; details: Homo sapiens, HT-29, 48 h
In short: as §1

[1] = system: NRK-52E, normal rat kidney cells; details: 24 h
physchem [2] = details: pH 7.4, aqueous buffer, Solubility Dulbecco's PBS pH 7.4
H-MEC-1 = assay: Inhibition of cells growth by colorimetric assay (SRB), H-MEC-1; assay type: cell-based; details: Homo sapiens, HMEC-1, 48 h
In short: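 SRB colorimetric read-out (490 nm) after TCA fixation gave GI, TGI and LC values from triplicate wells. Before that, cells (5×10^3/well, RPMI 1640 with 10% FBS, 37 °C, 5% CO2) grew drug-free 18 h and were then continuously exposed 48 h to 10–10^−8 μg/ml compound.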

physchem [3] = details: pH 7.4, log D n-Octanol-Dulbecco's PBS pH 7.4
Experimental: The measurement of partition coefficient was evaluated based on a miniaturized shake-flask procedure. Buffer (Dulbecco's PBS, pH 7.40) was used as the aqueous phase. The tested compound was dissolved in DMSO, at the concentration of 100 μM. The final DMSO concentration (1%.) during the octanol-buffer partitioning are very low to avoid bias on the partitioning. The amount of compound in the buffer phase was determined by HPLC with photodiode array detection after an equilibration phase of 60 min. The amount of compound in the octanol phase is calculated by subtraction of the amount of compound in buffer from the total amount of compound, which is determined from a calibration sample.
Log D is calculated as the Log10 of the amount of compound in the octanol phase divided by the amount of compound in the buffer phase. The effective range of the log D microassay is approximately −0.5 to +4.5.

(HEPG2) = details: human, 24 h, 30 μM
Experimental: The toxic potential of compounds was investigated in vitro using primary human hepatocytes (HEPG2). The compounds were tested at 30 μM in duplicate with a final DMSO concentration of 1%. After incubation during 24 h at 37° C. the cell viability was determined by the conversion of oxided alarmarBlue (resazurin) to reduced alarmarBlue (resorufin). Chlorpromazine was used as reference compound. Results are expressed as a percent of inhibition of control values.

CYP2D6 = CYP2D6 (Homo sapiens, UniProt P10635); assay: in vitro; details: CYP2D6 (% inhibition)
CYP3A4 = CYP3A4 (Homo sapiens, UniProt P08684); assay: in vitro; details: CYP3A4 (% inhibition)
[4] = system: FDC-P1, normal mouse myelogeous stem cells; details: 24 h
[5] = system: AML-12, normal mouse liver cells; details: 24 h
[6] = system: L8, normal rat skeletal muscle cells; details: 24 h
[7] = s9, 60 min, 1 μM
Experimental: The metabolic stability was determined used human liver S9 homogenate that including both microsomal and cytosolic enzyme activities. The test compound was diluted in methanol (0.625%) and acetonitrile (0.625%) at the concentration 1 μM and incubated in the human liver pool (protein=1 mg/mL) during 60 min at 37° C. Peak areas corresponding to all analytes (metabolic products) were determined by HPLC-MS/MS. Areas were recorded and ratios of peak areas of analytes to that of internal standard for each analyte were determined. The ratio of precursor compound remaining after 60 minutes and the amount remaining at time zero, expressed as percent, are reported as metabolic stability. Higher values mean higher metabolic stability.

[8] = IGROV-ET, 48 hours exposure, SRB
[9] = LOVO-DOX, 48 hours exposure, SRB
[10] = H-MEC-1, 48 hours exposure, SRB

CYP2D6, sequence (P10635 whole entry): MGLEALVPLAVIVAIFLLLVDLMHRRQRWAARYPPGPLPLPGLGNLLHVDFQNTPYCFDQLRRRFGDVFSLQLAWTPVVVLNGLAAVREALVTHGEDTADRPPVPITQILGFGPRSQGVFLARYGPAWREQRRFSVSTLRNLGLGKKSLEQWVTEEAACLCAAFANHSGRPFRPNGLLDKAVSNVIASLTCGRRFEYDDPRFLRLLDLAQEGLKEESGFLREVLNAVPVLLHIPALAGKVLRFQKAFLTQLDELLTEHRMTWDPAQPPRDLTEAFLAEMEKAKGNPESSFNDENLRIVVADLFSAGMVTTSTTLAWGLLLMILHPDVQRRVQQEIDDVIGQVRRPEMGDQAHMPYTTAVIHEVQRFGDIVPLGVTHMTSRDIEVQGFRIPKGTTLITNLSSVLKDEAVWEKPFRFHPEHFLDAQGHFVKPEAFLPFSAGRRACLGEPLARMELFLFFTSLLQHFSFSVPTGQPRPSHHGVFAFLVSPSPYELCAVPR
CYP3A4, sequence (P08684 whole entry): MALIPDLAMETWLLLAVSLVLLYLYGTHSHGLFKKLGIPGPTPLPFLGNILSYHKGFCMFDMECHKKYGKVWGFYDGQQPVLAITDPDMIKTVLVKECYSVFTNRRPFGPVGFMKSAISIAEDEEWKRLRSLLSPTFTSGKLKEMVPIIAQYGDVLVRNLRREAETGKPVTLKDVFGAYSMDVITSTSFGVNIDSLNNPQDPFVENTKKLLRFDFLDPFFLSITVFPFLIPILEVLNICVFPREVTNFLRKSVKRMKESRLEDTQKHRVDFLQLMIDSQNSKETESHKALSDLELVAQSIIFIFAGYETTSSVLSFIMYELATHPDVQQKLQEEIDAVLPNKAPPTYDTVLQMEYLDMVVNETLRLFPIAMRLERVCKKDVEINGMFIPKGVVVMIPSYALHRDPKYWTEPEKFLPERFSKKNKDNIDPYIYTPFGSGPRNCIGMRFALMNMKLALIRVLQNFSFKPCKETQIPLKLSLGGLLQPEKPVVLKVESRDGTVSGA

COc1c(C)cc2c(c1O)[C@@H]1C3[C@@H]4SC[C@]5(NCCc6c5[nH]c5c(C)cccc65)C(=O)COC[C@@H](c5c6c(c(C)c(OC(C)=O)c54)OCO6)N3[C@@H](O)[C@H](C2)N1C (stereo partly shown) [Compound 36]
GI50 (PANC-1; PANC-1, 48 hours exposure, SRB): 42.1 nM | IC (TGI) (PANC-1; PANC-1, 48 hours exposure, SRB): 104 nM | CC50 (PANC-1; read-out: LC50, PANC-1, 48 hours exposure, SRB): 13000 nM | GI50 (LNCAP; 48 hours exposure, SRB): 6.14 nM | IC (TGI) (LNCAP; 48 hours exposure, SRB): 9.48 nM | CC50 (LNCAP; read-out: LC50, LNCAP, 48 hours exposure, SRB): 25.1 nM | GI50 (MEL-28; MEL-28, 48 hours exposure, SRB): 2.16 nM | IC (TGI) (MEL-28; MEL-28, 48 hours exposure, SRB): 5.23 nM | CC50 (MEL-28; read-out: LC50, MEL-28, 48 hours exposure, SRB): 12.6 nM | GI50 (DU145; DU145, 48 hours exposure, SRB): 5.41 nM | IC (TGI) (DU145; DU145, 48 hours exposure, SRB): 9.39 nM | CC50 (DU145; read-out: LC50, DU145, 48 hours exposure, SRB): 13000 nM | GI50 (SK-BR3; SK-BR3, 48 hours exposure, SRB): 11.8 nM | IC (TGI) (SK-BR3; SK-BR3, 48 hours exposure, SRB): 32 nM | CC50 (SK-BR3; read-out: LC50, SK-BR3, 48 hours exposure, SRB): 86.4 nM | GI50 (IGROV; 48 hours exposure, SRB): 3.72 nM | IC (TGI) (IGROV; 48 hours exposure, SRB): 7.21 nM | CC50 (IGROV; read-out: LC50, IGROV, 48 hours exposure, SRB): 27.1 nM | GI50 (K562; K562, 48 hours exposure, SRB): 6.15 nM | IC (TGI) (K562; K562, 48 hours exposure, SRB): 9.92 nM | CC50 (K562; read-out: LC50, K562, 48 hours exposure, SRB): 109 nM | GI50 (IGROV-ET; [8]): 50.3 nM | IC (TGI) (IGROV-ET; [8]): 103 nM | CC50 (IGROV-ET; read-out: LC50, IGROV-ET, 48 hours exposure, SRB): 130 nM | GI50 (A549; A549, 48 hours exposure, SRB, read-out: GI50): 28.4 nM | IC (TGI) (A549; A549, 48 hours exposure, SRB, read-out: TGI): 50.7 nM | CC50 (A549; read-out: LC50, A549, 48 hours exposure, SRB): 90.9 nM | GI50 (LOVO; 48 hours exposure, SRB): 27.3 nM | IC (TGI) (LOVO; 48 hours exposure, SRB): 54.6 nM | CC50 (LOVO; read-out: LC50, LOVO, 48 hours exposure, SRB): 109 nM | GI50 (LOVO-DOX; [9]): 70.4 nM | IC (TGI) (LOVO-DOX; [9]): 977 nM | CC50 (LOVO-DOX; read-out: LC50, LOVO-DOX, 48 hours exposure, SRB): 13000 nM | GI50 (HT29; HT29, 48 hours exposure, SRB): 61.8 nM | IC (TGI) (HT29; HT29, 48 hours exposure, SRB): 187 nM | CC50 (HT29; read-out: LC50, HT29, 48 hours exposure, SRB): 13000 nM | Kidney [1]: 3.56E−07 | solubility (physchem [2]): 26 µM (≈ 20.4 µg/mL) | GI50 (H-MEC-1; [10]): 84.3 nM | IC (TGI) (H-MEC-1; [10]): 783 nM | CC50 (H-MEC-1; read-out: LC50, H-MEC-1, 48 hours exposure, SRB): 13000 nM | logD at 60 min (physchem [3]): > 4.4 | Cell Viability (% inhibition) ((HEPG2)): 33 % inhibition | inhibition at 450 min, 10 µM (CYP2D6): 15% | inhibition at 30 min, 10 µM (CYP3A4): 78% | Myelo [4]: 2.05E−07 | Liver [5]: 3.19E−07 | Skeletal [6]: 2.71E−08 | Human Liver S9 Metabolic Stability (% remaining) [7]: 2 % remaining
